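The compound was tested at five concentrations on cells cultured in 96-well plates, with a 48-hour exposure period. GI50 = concentration required for 50% inhibition of growth. Definition used: TGI = concentration required for complete inhibition of growth.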 Bounds are passed on as bounds.

This note sets out measurements from PubChem BioAssay (NCI).

Test systems include A549 NSCLC; BT-549 breast; M14 melanoma; MDA-MB-231 breast; MOLT-4 leukemia; SN12C renal; T-47D breast; HL-60(TB) leukemia.
Test in all cases: NCI tumour cell line growth inhibition, 48 h

As to `COC(=O)C1=C(C(=O)OC)C2CCC1CC2=O` (stereo unspecified), the TGI in the assay with A549 NSCLC, in the assay with BT-549 breast, in the assay with M14 melanoma, in the assay with MDA-MB-231 breast, with MOLT-4 leukemia and in the assay with SN12C renal was > 100 µM each time.
As for `COc1ccc([C@H]2C=C(c3cc(F)c(Cl)cc3Cl)N=c3s/c(=C\c4ccc(-c5ccc(Cl)cc5Cl)o4)c(=O)n32)cc1`, the TGI in the assay with A549 NSCLC is > 100 µM; in the assay on BT-549 breast, > 100 µM; in the assay with M14 melanoma, > 100 µM; in the assay with MDA-MB-231 breast it was 70.2 µM; with MOLT-4 leukemia it was > 100 µM; with SN12C renal it was > 100 µM. Moreover, the TGI in the assay on T-47D breast is > 100 µM.
For `O=C(CN1CCOCC1)c1ccc2c(c1)oc(=O)n2CCN1CCCCC1`, the TGI in the assay on BT-549 breast, in the assay with HL-60(TB) leukemia, in the assay with M14 melanoma, in the assay on MDA-MB-231 breast, in the assay with MOLT-4 leukemia and in the assay with SN12C renal was > 100 µM throughout.
On to `COc1cc(CNC(=O)CCCCCCCCCCSC#N)ccc1O`, for which the TGI was 42.1 µM with A549 NSCLC; 44.6 µM with BT-549 breast; 28.9 µM with HL-60(TB) leukemia; 21.5 µM in the assay with M14 melanoma; > 100 µM with MDA-MB-231 breast; 31.1 µM in the assay with MOLT-4 leukemia. This compound also yielded a TGI with T-47D breast of 48.1 µM.
Regarding `COc1ccc(-c2nc3ccccc3c(=O)[nH]2)cc1OC`, the TGI in the assay with A549 NSCLC was > 100 µM; in the assay on BT-549 breast, > 100 µM; in the assay on M14 melanoma, > 100 µM; with MDA-MB-231 breast, 77 µM; with MOLT-4 leukemia it was > 100 µM; in the assay on SN12C renal it was > 100 µM. Also, in the assay on T-47D breast, the TGI is > 100 µM.
`Cc1ccc(S(=O)(=O)N/N=C2/C3CC4CCC2C4C3)cc1` (stereo unspecified): the TGI in the assay with A549 NSCLC, in the assay with BT-549 breast, with M14 melanoma, with MDA-MB-231 breast, in the assay on SN12C renal and in the assay with T-47D breast was > 100 µM in each case.
On to `CCN(CC)C(=O)N1CN(c2ccccc2)C2(CCN(CCCC3(c4ccc(F)cc4)OCCO3)CC2)C1=O`, for which the TGI is > 100 µM in the assay with A549 NSCLC; 28.9 µM in the assay on BT-549 breast; 27.9 µM with HL-60(TB) leukemia; > 100 µM in the assay on M14 melanoma; 34.9 µM with MOLT-4 leukemia; 32.8 µM in the assay on SN12C renal. For the same compound, the TGI in the assay on T-47D breast is > 100 µM.
With `COc1cc(/C=C2\CCCC3=C2N=C2SC=NN2C3c2cc(OC)c(OC)c(OC)c2)cc(OC)c1OC` (stereo unspecified), the GI50 in the assay on A549 NSCLC was 2.95 µM; with HL-60(TB) leukemia it was 2.93 µM; with M14 melanoma it was 2.4 µM; in the assay on MDA-MB-231 breast, 4.95 µM; in the assay on MOLT-4 leukemia it was 3.06 µM; with SN12C renal, 2.39 µM. The GI50 in the assay with T-47D breast is 3.9 µM. For the same compound, the TGI in the assay with A549 NSCLC was > 100 µM; in the assay on HL-60(TB) leukemia it was 9.49 µM; in the assay with M14 melanoma, 7.1 µM; in the assay on MDA-MB-231 breast, > 100 µM; with SN12C renal, 7.11 µM; in the assay on T-47D breast, > 100 µM.
In the case of `O=C(O)Cc1ccc(-n2nnc3c(=O)[nH][nH]c(=O)c32)cc1`, the TGI in the assay on A549 NSCLC, with BT-549 breast, in the assay with HL-60(TB) leukemia, with M14 melanoma, with MDA-MB-231 breast and in the assay with MOLT-4 leukemia was > 100 µM each time. For the same compound, the TGI in the assay on SN12C renal was > 100 µM.
Take `Cc1cc(NS(=O)(=O)c2ccc(N=Nc3c(Nc4ccccc4)nn(-c4ccc(S(=O)(=O)Nc5ccncn5)cc4)c3C)cc2)no1`: the TGI in the assay with A549 NSCLC, with M14 melanoma, in the assay on MDA-MB-231 breast, in the assay with MOLT-4 leukemia, with SN12C renal and in the assay on T-47D breast was > 100 µM in each case.
As to `COc1ccc(OC)c2c1-c1nnnn1CCC2(C)C`, the TGI in the assay with BT-549 breast, in the assay with HL-60(TB) leukemia, in the assay on M14 melanoma, in the assay on MDA-MB-231 breast, in the assay with MOLT-4 leukemia and in the assay with SN12C renal was > 100 µM throughout. In the assay on T-47D breast, the TGI is > 100 µM.
For `O=c1ccc2c(Cl)sc(Cl)c2[nH]1`, the TGI with A549 NSCLC, in the assay on BT-549 breast, in the assay on M14 melanoma, in the assay on MDA-MB-231 breast, in the assay on MOLT-4 leukemia and with SN12C renal was > 100 µM each time. The TGI in the assay on T-47D breast was > 100 µM.
On to `COc1ccc(/C=C2\NC(=S)N(CN3CCOCC3)C2=O)cc1`, for which the TGI in the assay with A549 NSCLC, with M14 melanoma, in the assay with MDA-MB-231 breast, in the assay with MOLT-4 leukemia and with SN12C renal was > 100 µM each time.
As to `FC1(F)SC2CCCCCCCCCCC2C1(F)F` (stereo unspecified), the TGI in the assay with A549 NSCLC is > 100 µM; in the assay with BT-549 breast, > 100 µM; in the assay with HL-60(TB) leukemia, 30.3 µM; in the assay on M14 melanoma, > 100 µM; with MDA-MB-231 breast it was > 100 µM; with MOLT-4 leukemia it was > 100 µM. Moreover, the TGI in the assay with T-47D breast is > 100 µM.
For the compound `Cc1cn(C2CC(/[N+]([O-])=N\Nc3ccc([N+](=O)[O-])cc3)C(CO)O2)c(=O)[nH]c1=O` (stereo unspecified), the TGI in the assay on A549 NSCLC, in the assay on BT-549 breast, with HL-60(TB) leukemia, in the assay on M14 melanoma, in the assay with MDA-MB-231 breast and in the assay on MOLT-4 leukemia was > 100 µM in each case. In addition, in the assay with SN12C renal, the TGI is > 100 µM.
Turning to `CC(C)N=C(NC#N)NS(=O)(=O)c1cnccc1NC1CCCCCCC1`, the TGI with A549 NSCLC, in the assay on BT-549 breast, with M14 melanoma, in the assay with MDA-MB-231 breast, in the assay on MOLT-4 leukemia and in the assay on SN12C renal was > 100 µM in each case. The TGI with T-47D breast was > 100 µM.
In the case of `COc1ccccc1N1C(=O)/C(=C\c2ccccc2)SC1c1cc(OC)c(OC)c(OC)c1` (stereo unspecified), the TGI with A549 NSCLC is > 100 µM; in the assay on BT-549 breast, > 100 µM; in the assay on M14 melanoma, > 100 µM; in the assay with MDA-MB-231 breast, 71.3 µM; with MOLT-4 leukemia, > 100 µM; in the assay on SN12C renal it was 87.9 µM. Besides, the TGI with T-47D breast is 37.8 µM.
Regarding `NCCCCNCCCNC(=O)c1csc(-c2nc(CCN)sc2Cl)n1`, the TGI with A549 NSCLC, with BT-549 breast, in the assay on HL-60(TB) leukemia, with M14 melanoma, in the assay with MOLT-4 leukemia and in the assay with SN12C renal was > 100 µM throughout. For the same compound, the TGI in the assay with T-47D breast was > 100 µM.
